Test results taken from patent US20100292316A1, “IMPROVED THERAPEUTIC METHODS AND COMPOSITIONS COMPRISING CHROMAN RING COMPOUNDS” (Research Development Foundation, priority 2007, published 2010).

Test system: PARP
Assay: PARP cleavage (p84) by Western blot, densitometry
Assay type: cell-based, human
Conditions: LNCaP, 40 μM α-TEA 15 h
Procedure: Whole-cell protein extracts were prepared as described previously (Yu et al., 1999), and 50 μg of protein was loaded per lane, separated using SDS-PAGE on a 10-15% gel under reducing conditions, and electroblotted onto a nitrocellulose membrane ([…] Optitran BA-S-supported nitrocellulose; Schleicher and Schuell, Keene, N.H.). Equal loading was verified using GAPDH antibody. Primary rabbit antibodies with specificity for PARP and primary goat antibody with specificity for Arg were purchased from Santa Cruz Biotechnology (Santa Cruz, Calif.). Horseradish peroxidase conjugated goat anti-rabbit or horseradish goat anti-mouse secondary antibody was purchased from Jackson Immunoresearch Laboratory (West Grove, Pa.). Horseradish peroxidase-conjugated donkey anti-goat serum was purchased from Santa Cruz Biotechnology. Immune complexes were visualized using enhanced chemiluminescence detection (Pierce Chemical Co., Rockford, Ill.). Fold differences in level of chemiluminescence were determined by densitometric analyses.
Primary mouse antibody specific for p73 was purchased from IMGENEX (San Diego, Calif.). Primary mouse antibody specific for caspase 8 was purchased from Cell Signaling Technology (Beverly, Mass.). Horseradish peroxidase conjugated goat anti-rabbit or goat anti-mouse secondary antibodies were purchased from Jackson Immunoresearch Laboratory (West Grove, Pa.). Horseradish peroxidase-conjugated donkey […] serum was purchased from Santa Cruz Biotechnology. Immune complexes were visualized using enhanced chemiluminescence detection (Pierce Chemical Co., Rockford, Ill.). Fold differences in level of chemiluminescence were determined by densitometric analyses.

Which results are given for `Cc1c(C)c2c(c(C)c1OCC(=O)O)CC[C@@](C)(CCC[C@H](C)CCC[C@H](C)CCCC(C)C)O2` [α-TEA]?
PARP cleavage in comparison to empty vector control, cells overexpressing Flag-tagged wild type FOXO1: 160%; PARP cleavage in comparison to empty vector control, cells overexpressing constitutively active Flag-FOXO1 AAA: 230%
